Measurements as given in US10561629B2, “Food containing glycine and use thereof” (AJINOMOTO CO., INC., priority 2004, dated 2020).
Read-outs that look alike come from different tables or passages of the source.

Legend:
[1] = 3 g 1 hr before bedtime
Method: (§1) A double-blind crossover test aiming at confirmation of the effect of glycine on sleep was performed with 14 male adults (body weight 64-112.5 kg, average 81.2 kg) concerned about snoring and apnea condition during sleep. The test participants took glycine (granules containing citric acid and the like) in an amount equivalent to 3 g of glycine 1 hr before bedtime, and reduced maltose containing components other than glycine (citric acid and the like) and adjusted to an almost indistinguishable taste was used as a placebo.
(1) For the evaluation of sleep condition, overnight polysomnography was used for the measurement.
(§2) In addition, the sleep condition of the night before was examined on waking using the sleep questionnaire.

[2] = for mental condition on waking: improved in comparison with placebo / mental condition on waking: no change in comparison with placebo / mental condition on waking: worsened in comparison with placebo / physical condition on waking: improved in comparison with placebo / physical condition on waking: no change in comparison with placebo / physical condition on waking: worsened in comparison with placebo: 3 g 1 hr before bedtime
Method: A double-blind crossover test aiming at confirmation of the effect of glycine on sleep was performed with 15 female adults (20s-50s, body weight 46-58 kg). The test participants took glycine (granule containing citric acid and the like) in an amount equivalent to 3 g of glycine 1 hr before bedtime, and reduced maltose containing components other than glycine (citric acid and the like) and adjusted to an almost indistinguishable taste was used as a placebo. For the test, glycine and placebo were each taken for 4 days with an interval of a 3 day non-intake period, totaling 2 weeks.
In the Table, the values of glycine and placebo show the test participant average of the points of evaluation in 8 levels in the sleep questionnaire “depth of sleep”. […] In addition, the p value is a statistical value showing the probability when the difference between glycine and placebo was hypothesized to be null. Particularly, this value of 0.05 or below is considered to indicate a significant difference.
(4) At the end of each 1 week test period, a question was asked about the soundness of sleep.

[3] = 3 g 30 min before bedtime, sleep limited to about 75%, next daytime, mean ± standard error
Method: A single-blind crossover study aimed at confirmation of the effect of glycine on sleep was performed with 7 male adults (30s-40s, body weight 62-79 kg). The test participants took glycine (granule containing citric acid and the like) in an amount equivalent to 3 g of glycine 30 min before bedtime, and reduced maltose containing components other than glycine (citric acid and the like) and adjusted to an almost indistinguishable taste was used as a placebo. The sleep hours on the day of administration was limited to about 75% (5-6.5 hr) of comfortable sleep hours each test participant voluntarily notified, and a nap was prohibited until the end of the administration. For the test, glycine and placebo were each taken for 3 days with an interval of a 14-21 day non-intake period, totaling 4-5 weeks. Of the 3 days, the following investigation and measurement were performed at 10 o'clock, 14 o'clock and 18 o'clock of the next day of the first day of the intake.
In addition, the p value is a statistical value showing the probability when the difference between glycine and placebo was hypothesized to be null. Particularly, this value of 0.05 or below is considered to indicate a significant difference.

[4] = Method: as §1, §2
[5] = test participant A, in water before bed
Text: The test participant A (body weight 45 kg) took glycine (substantially pure powder) in an amount shown in Table 6 before going to bed by dissolving same in water, and recorded the level of realization of deep sleep. When the realization of deep sleep increased than usual, “+” was marked, when the realization of deep sleep was almost the same as usual, “±” was marked and when it became worse, “−” was marked.

[6] = participants 32 years old or older (6)
[7] = participants with PSQI not less than 9 (7)
[8] = SAM lassitude check list, 4-day total, difference by 1 point or more vs placebo, 15 participants
[9] = SAM lassitude check list, 4-day total, difference by 4 points or more vs placebo, 15 participants
[10] = out of 15 participants, end of each 1 week test period
[11] = participants 32 years old or older

SMILES: NCC(=O)O [glycine, Glycine]
- slow wave sleep (%) in sleep onset initial stage ([1]; early stage (1 hr) of sleep onset, placebo 6.4, p value 0.020): 12.0%
- lights-out - sleep onset ([1]; placebo 16.3, p value 0.322): 13.3 min
- lights-out - slow wave sleep ([1]; placebo 103.4, p value 0.042): 52.2 min
- mental condition on waking: improved in comparison with placebo [2, 6]: 5 person
- mental condition on waking: no change in comparison with placebo [2, 6]: 1 person
- mental condition on waking: worsened in comparison with placebo [2, 6]: 0 person
- physical condition on waking: improved in comparison with placebo [2, 6]: 5 person
- physical condition on waking: no change in comparison with placebo [2, 6]: 1 person
- physical condition on waking: worsened in comparison with placebo [2, 6]: 0 person
- mental condition on waking: improved in comparison with placebo [2, 7]: 5 person
- mental condition on waking: no change in comparison with placebo [2, 7]: 2 person
- mental condition on waking: worsened in comparison with placebo [2, 7]: 0 person
- physical condition on waking: improved in comparison with placebo [2, 7]: 5 person
- physical condition on waking: no change in comparison with placebo [2, 7]: 1 person
- physical condition on waking: worsened in comparison with placebo [2, 7]: 1 person
- Increase of lassitude on waking, effective criterion [2, 8]: 3 participants
- No change of lassitude on waking, effective criterion [2, 8]: 1 participants
- Reduction of lassitude on waking, effective [2, 8]: 11 participants
- Increase of lassitude on waking, remarkably effective criterion [2, 9]: 2 participants
- No change of lassitude on waking, remarkably effective criterion [2, 9]: 6 participants
- Reduction of lassitude on waking, remarkably effective [2, 9]: 7 participants
- Sleep questionnaire "depth of sleep" ([2]; average points, 8 levels, participants 32 years old or older, placebo 4.13, P value 0.042): 4.88
- soundness of sleep: participants answering that both were the same [2, 10]: 8 participants
- soundness of sleep: participants answering the week of glycine intake was fine [2, 10]: 6 participants
- soundness of sleep: participants answering the week of placebo intake was fine [2, 10]: one
- Effect of clearing head the next morning: effective in comparison with placebo [2, 11]: 5 person
- Effect of clearing head the next morning: no change in comparison with placebo [2, 11]: 1 person
- Effect of clearing head the next morning: worsened in comparison with placebo [2, 11]: 0 person
- lassitude (SAM lassitude check list total points) ([3]; placebo 9.0 ± 0.68, p value 0.025): 7.0 ± 0.74
- sleepiness (distance from left end of 100 mm line) ([3]; placebo 50.7 ± 4.39, p value 0.042): 38.1 ± 4.47 mm
- OSA sleep questionnaire point value, time of dozing off ([4]; participant average of 4 levels (0, 11, 19, 30 points), higher = shorter dozing, placebo 19.6): 24.9
- OSA sleep questionnaire point value, depth of sleep ([4]; participant average of 4 levels (0, 11, 21, 32 points), higher = deeper, placebo 12.3): 16.7
- Realization of deep sleep ([5]; 1/1 teaspoon, general amount 2.5 g): +
- Realization of deep sleep ([5]; ¼ teaspoon, general amount 0.6 g): +
- Realization of deep sleep ([5]; ½ teaspoon, general amount 1.2 g): +
